Measurements published in publication PMC9116242 (Journal of Enzyme Inhibition and Medicinal Chemistry, 2022).

Experiments:
PC12 cells = assay: Neuroprotective effect against Aβ1-42-induced PC12 cell injury, MTT assay; assay type: cell-based; conditions: 25 μM Aβ1-42 for 48 h, compound at 5 and 10 μM
[1] = PAMPA-BBB permeation assay; conditions: Table 3
[2] = test system: TNF-α production in LPS-induced BV-2 cells; assay: LPS-induced TNF-α production in BV-2 cells, ELISA; assay type: cell-based; conditions: for Level of TNF-α production: BV-2 cells, 1.0 μg/mL LPS; for inhibition at 5 µM: Mus musculus, BV-2, read-out: Inhibitory rate of TNF-α production
[3] = test system: NO production in LPS-induced BV-2 cells; assay: NO release in BV-2 cells and LPS-stimulated BV-2 cells, Griess reaction; assay type: cell-based; conditions: 5 and 10 μM
BV-2 cells = assay: Cytotoxicity on BV-2 cells, MTT assay; assay type: cell-based; conditions: 5 and 10 μM
huMAO-B = biological target: T1, huMAO-B (Homo sapiens, UniProt P27338); assay: Kinetic study against huMAO-B, Lineweaver-Burk plots; assay type: biochemical; conditions: 5a at 0.15, 0.3 and 0.6 μM
T1 sequence (P27338 1-520): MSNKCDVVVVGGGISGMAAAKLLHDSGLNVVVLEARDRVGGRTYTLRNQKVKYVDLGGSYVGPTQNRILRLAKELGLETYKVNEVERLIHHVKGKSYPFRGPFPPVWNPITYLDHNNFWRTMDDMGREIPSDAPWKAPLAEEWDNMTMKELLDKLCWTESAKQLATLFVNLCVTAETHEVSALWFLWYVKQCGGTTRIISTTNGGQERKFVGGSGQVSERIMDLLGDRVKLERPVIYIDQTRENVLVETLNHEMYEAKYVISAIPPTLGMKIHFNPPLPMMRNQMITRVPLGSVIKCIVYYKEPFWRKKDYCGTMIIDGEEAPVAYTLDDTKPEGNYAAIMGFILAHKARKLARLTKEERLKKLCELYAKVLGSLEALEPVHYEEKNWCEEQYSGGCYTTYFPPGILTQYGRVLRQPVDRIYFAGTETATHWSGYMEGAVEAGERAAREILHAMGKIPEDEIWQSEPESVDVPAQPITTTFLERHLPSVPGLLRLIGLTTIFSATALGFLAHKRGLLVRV

[4] = In vivo PET-CT imaging with [11C]5f in mice; conditions: blocker 1.0 mg/kg 5 min before the radiotracer, compared with baseline

| Compound | Cell viability, Aβ1-42-induced PC12 cell injury (in words) (PC12 cells) | Pe [1] [×10⁻⁶ cm/s] | Level of TNF-α production ([2]; compound at 5 μM) [pg/mL] | Level of TNF-α production ([2]; compound at 10 μM) [pg/mL] | inhibition at 5 µM [2] [%] | Effect on release of NO in BV-2 cells without LPS [3] | Cytotoxicity on BV-2 cells (cell viability) (BV-2 cells) | Type of MAO-B inhibition (huMAO-B) | Radio-uptake decrease of [11C]5f in the brain after pre-treatment (blocking) [4] [%] |
| --- | --- | --- | --- | --- | --- | --- | --- | --- | --- |
| COc1cc(/C=C/C(=O)N2CCC(Cc3ccccc3)CC2)ccc1OC1CCCCC1 [Compound 5d, (E)-1-(4-benzylpiperidin-1-yl)-3-(4-(cyclohexyloxy)-3-methoxyphenyl)prop-2-en-1-one] | gradually increased in a dose-dependent manner | 18.2 | 780 | 460 | 54.1 | did not produce an effect on the release of NO | non-toxic | – | – |
| C#CCOc1ccc(/C=C/C(=O)N2CCC(Cc3ccccc3)CC2)cc1OC [Compound 5a, (E)-1-(4-benzylpiperidin-1-yl)-3-(3-methoxy-4-(prop-2-yn-1-yloxy)phenyl)prop-2-en-1-one] | – | 14.7 | 820 | 520 | 51.7 | did not produce an effect on the release of NO | non-toxic | competitive | – |
| COc1cc(/C=C/C(=O)N2CCc3ccccc3C2)ccc1OC1CCCCC1 [Compound 5h, (E)-3-(4-(cyclohexyloxy)-3-methoxyphenyl)-1-(3,4-dihydroisoquinolin-2(1H)-yl)prop-2-en-1-one] | gradually increased in a dose-dependent manner | 16.7 | 740 | 435 | 56.5 | did not produce an effect on the release of NO | non-toxic | – | – |
| CCN(C)C(=O)Oc1cccc([C@H](C)N(C)C)c1 [Rivastigmine, reference compound] | – | – | – | – | – | – | – | – | ~35 |
| COc1ccc(/C=C/C(=O)N2CCc3ccccc3C2)cc1OC [Compound 5f, (E)-1-(3,4-dihydroisoquinolin-2(1H)-yl)-3-(3,4-dimethoxyphenyl)prop-2-en-1-one] | gradually increased in a dose-dependent manner | 20.4 | 750 | 455 | 55.9 | did not produce an effect on the release of NO | non-toxic | – | ~35 |
| C#CCOc1ccc(/C=C/C(=O)N2CCc3ccccc3C2)cc1OC [Compound 5e, (E)-1-(3,4-dihydroisoquinolin-2(1H)-yl)-3-(3-methoxy-4-(prop-2-yn-1-yloxy)phenyl)prop-2-en-1-one] | gradually increased in a dose-dependent manner | 12.5 | 805 | 550 | 52.6 | did not produce an effect on the release of NO | non-toxic | – | – |
